Measured values from patent US20090118332A1, “Therapeutic Agents - 551” (AstraZeneca AB, priority 2006, published 2009).

Target: T1, human Fatty Acid Synthase (Homo sapiens, UniProt P49327)
T1 construct: made in house
Assay: Human FAS enzyme assay (decrease in NADPH fluorescence)
Assay type: biochemical
Settings: for inhibition at 100 µM: % inhibition at a concentration of 100 μmolar; for IC50, inhibition of human Fatty Acid Synthase: FAS enzyme assay, IC50 from fitted sigmoid curves
Experimental: Human and Rat FAS Enzyme Assay.
Fatty acid synthase is an enzyme complex that harbours seven enzymatic activities catalysing the reductive synthesis of long chain fatty acids from acetyl CoA and malonyl CoA to palmitate. When acetyl CoA and malonyl CoA are forming palmitate NADPH is consumed forming NADP. Since NADPH is fluorescent but not NADP the reaction can be measured by analysing the decrease in fluorescence.
Compounds were added to a black 384 well plate (Matrix) in a volume of 5 μl consisting of 20% DMSO and 80% Tris buffer pH 7.5, at a top concentration of 1 mM. NADPH, 30 μl of 166.6 μM, formulated in assay buffer (0.1M Tris ph7.5, 0.1 mM EDTA, 1 mM glutathione, 0.05% BSA), was then added to all of the wells of the plate. Fatty acid synthase Human or rat enzyme (0.4 μg, produced in house), dissolved in 20 mM Tris/HCl pH 7.5, 5 mM BOG, 1 mM TCEP, 10% glycerol, 1 mM EDTA, 150 mM NaCl, was then added to the plate in a volume of 10 μl. Enzyme was added to all but the last two columns of the plate, to which, 10 μl of assay buffer was added (0.1M Tris ph7.5, 0.1 mM EDTA, 1 mM glutathione, 0.05% BSA) to provide a no enzyme assay control. Following a 15-minute incubation period, at room temperature, the plates were read on an Envision plate reader using 340 nm excitation and 460 nm emission filters. This served as a time zero background read. Substrates (an equal mix of both malonyl and acetyl CoA) were then added to the plates in a total volume of 5 μl. The concentrations of malonyl and acetyl CoA in the mixture were 500 μM and 150 μM respectively. Both were prepared as 10 mM stock solutions in distilled water and were subsequently diluted to working concentrations in assay buffer. Plates were then incubated for a further 60 minutes, at room temperature, before being read again on the Envision reader using the same parameters as previously used. The data was analysed by subtracting the background time zero data from that generated following the final 60 minute incubate and the percent inhibition compared to the maximum and minimum assay controls was determined. Sigmoid curves were fitted using Origin 7.5 Client software and IC50 values were determined.

T1 sequence (P49327 whole entry): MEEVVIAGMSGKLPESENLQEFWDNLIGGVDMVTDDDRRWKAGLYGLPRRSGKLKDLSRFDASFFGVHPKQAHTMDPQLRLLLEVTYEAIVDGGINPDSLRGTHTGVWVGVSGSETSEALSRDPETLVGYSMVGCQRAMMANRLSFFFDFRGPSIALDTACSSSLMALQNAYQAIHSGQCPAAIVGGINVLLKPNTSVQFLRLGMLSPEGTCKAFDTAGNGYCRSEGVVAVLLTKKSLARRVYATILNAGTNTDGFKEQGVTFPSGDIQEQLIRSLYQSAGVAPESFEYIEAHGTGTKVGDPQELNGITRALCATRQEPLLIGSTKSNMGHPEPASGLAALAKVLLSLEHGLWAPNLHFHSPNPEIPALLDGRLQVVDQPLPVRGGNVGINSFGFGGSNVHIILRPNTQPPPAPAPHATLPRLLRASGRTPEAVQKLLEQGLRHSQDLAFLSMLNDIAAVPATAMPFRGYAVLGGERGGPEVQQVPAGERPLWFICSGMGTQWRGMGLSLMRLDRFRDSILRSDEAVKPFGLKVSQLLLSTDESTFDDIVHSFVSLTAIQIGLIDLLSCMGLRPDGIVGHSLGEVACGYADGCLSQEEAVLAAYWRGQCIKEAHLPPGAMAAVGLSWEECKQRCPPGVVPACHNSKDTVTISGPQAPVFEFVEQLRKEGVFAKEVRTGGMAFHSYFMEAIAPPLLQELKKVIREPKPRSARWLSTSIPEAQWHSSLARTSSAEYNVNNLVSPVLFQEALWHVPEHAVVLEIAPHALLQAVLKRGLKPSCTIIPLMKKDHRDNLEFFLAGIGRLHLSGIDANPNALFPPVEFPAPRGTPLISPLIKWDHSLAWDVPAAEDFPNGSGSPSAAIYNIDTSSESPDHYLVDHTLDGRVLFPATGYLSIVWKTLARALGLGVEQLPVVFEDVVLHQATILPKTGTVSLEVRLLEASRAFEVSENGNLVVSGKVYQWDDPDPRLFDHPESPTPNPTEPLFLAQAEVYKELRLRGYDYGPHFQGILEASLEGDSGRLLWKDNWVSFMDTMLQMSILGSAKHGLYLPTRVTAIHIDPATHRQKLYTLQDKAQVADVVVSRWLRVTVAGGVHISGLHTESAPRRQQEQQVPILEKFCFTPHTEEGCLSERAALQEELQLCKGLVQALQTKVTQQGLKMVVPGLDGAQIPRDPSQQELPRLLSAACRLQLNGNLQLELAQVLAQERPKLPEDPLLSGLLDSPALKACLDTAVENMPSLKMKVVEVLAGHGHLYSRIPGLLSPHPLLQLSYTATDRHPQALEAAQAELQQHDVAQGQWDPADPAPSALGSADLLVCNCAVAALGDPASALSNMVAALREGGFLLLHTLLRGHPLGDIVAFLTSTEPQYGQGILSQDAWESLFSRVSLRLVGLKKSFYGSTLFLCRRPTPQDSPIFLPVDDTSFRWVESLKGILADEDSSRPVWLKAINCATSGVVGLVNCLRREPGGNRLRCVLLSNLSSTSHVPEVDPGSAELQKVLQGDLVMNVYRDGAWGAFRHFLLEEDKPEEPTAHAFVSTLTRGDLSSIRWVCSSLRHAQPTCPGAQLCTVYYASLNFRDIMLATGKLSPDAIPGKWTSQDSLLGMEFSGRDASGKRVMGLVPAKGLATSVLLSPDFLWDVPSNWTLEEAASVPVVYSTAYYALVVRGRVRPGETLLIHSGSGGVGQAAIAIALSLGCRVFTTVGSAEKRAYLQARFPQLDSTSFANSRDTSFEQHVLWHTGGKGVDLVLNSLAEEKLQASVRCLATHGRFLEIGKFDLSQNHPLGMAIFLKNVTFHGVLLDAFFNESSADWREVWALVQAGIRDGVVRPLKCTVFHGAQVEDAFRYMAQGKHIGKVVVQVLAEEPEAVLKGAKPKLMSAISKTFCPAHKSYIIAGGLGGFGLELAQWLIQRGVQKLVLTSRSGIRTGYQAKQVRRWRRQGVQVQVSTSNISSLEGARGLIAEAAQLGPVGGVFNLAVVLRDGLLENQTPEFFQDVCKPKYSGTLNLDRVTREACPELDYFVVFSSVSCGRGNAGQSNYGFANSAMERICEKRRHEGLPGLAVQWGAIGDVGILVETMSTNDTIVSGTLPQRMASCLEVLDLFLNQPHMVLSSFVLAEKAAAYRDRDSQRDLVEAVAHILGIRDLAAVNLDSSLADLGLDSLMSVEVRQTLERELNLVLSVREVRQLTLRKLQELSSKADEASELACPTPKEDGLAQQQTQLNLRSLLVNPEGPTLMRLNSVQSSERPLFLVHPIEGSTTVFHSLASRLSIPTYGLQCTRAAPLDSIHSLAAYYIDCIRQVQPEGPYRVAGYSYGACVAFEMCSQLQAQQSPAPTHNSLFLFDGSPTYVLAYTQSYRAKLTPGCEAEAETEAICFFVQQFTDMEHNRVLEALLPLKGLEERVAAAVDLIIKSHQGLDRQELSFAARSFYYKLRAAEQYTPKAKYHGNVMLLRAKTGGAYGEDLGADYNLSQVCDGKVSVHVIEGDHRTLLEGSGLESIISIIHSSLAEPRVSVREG

Compound	inhibition at 100 µM	IC50, inhibition of human Fatty Acid Synthase
Cc1ccc(C(=O)N2CCC(c3ccc(C#N)cc3)CC2)cc1NC(=O)NC1CCNCC1 [Example 211, 1-[5-[4-(4-cyanophenyl)piperidine-1-carbonyl]-2-methyl-phenyl]-3-(4-piperidyl)urea]	87.4%	–
Cc1ccc(C(=O)N2CCC(c3ccc(C#N)cc3)CC2)cc1NC(=O)NCCN(C)C(=O)OC(C)(C)C [Example 115, tert-butyl N-[2-[[5-[4-(4-cyanophenyl)piperidine-1-carbonyl]-2-methyl-phenyl]carbamoylamino]ethyl]-N-methyl-carbamate]	92.9%	–
Cc1ccc(C(=O)N2CCC(c3ccc(C#N)cc3)CC2)cc1NC(=O)NCCNS(=O)(=O)N(C)C [Example 92, 1-[5-[4-(4-cyanophenyl)piperidine-1-carbonyl]-2-methyl-phenyl]-3-[2-(dimethylsulfamoylamino)ethyl]urea]	102%	–
Cc1ccc(C(=O)N2CCC(c3ccc(C#N)cc3)CC2)cc1NC(=O)NCC1CCCCO1 (stereo not shown) [Example 166, 1-[5-[4-(4-cyanophenyl)piperidine-1-carbonyl]-2-methyl-phenyl]-3-(oxan-2-ylmethyl)urea]	94.7%	–
Cc1ccc(C(=O)N2CCC(c3ccc(C#N)cc3)CC2)cc1NC(=O)NC(C)COc1ccccc1 (racemic) [Example 253, (RS)-1-[5-[4-(4-cyanophenyl)piperidine-1-carbonyl]-2-methyl-phenyl]-3-(1-phenoxypropan-2-yl)urea]	90.9%	–
Cc1ccc(C(=O)N2CCC(c3ccc(C#N)cc3)CC2)cc1NC(=O)NCCNC(=O)c1cccs1 [Example 117, N-[2-[[5-[4-(4-cyanophenyl)piperidine-1-carbonyl]-2-methyl-phenyl]carbamoylamino]ethyl]thiophene-2-carboxamide]	84.5%	–
Cc1ccc(C(=O)N2CCC(c3ccc(C#N)cc3)CC2)cc1NC(=O)NCCN1CCCC1 [Example 137, 1-[5-[4-(4-cyanophenyl)piperidine-1-carbonyl]-2-methyl-phenyl]-3-(2-pyrrolidin-1-ylethyl)urea]	87.9%	–
COc1ccc(NCCNC(=O)Nc2cc(C(=O)N3CCC(c4ccc(C#N)cc4)CC3)ccc2C)cc1 [Example 101, 1-[5-[4-(4-cyanophenyl)piperidine-1-carbonyl]-2-methyl-phenyl]-3-[2-[(4-methoxyphenyl)amino]ethyl]urea]	90.7%	–
Cc1ccc(C(=O)N2CCC(c3ccc(C#N)cc3)CC2)cc1NC(=O)NCc1cn(C)nc1C [Example 258, 1-[5-[4-(4-cyanophenyl)piperidine-1-carbonyl]-2-methyl-phenyl]-3-[(1,3-dimethylpyrazol-4-yl)methyl]urea]	89%	–
Cc1ccc(C(=O)N2CCC(c3ccc(C#N)cc3)CC2)cc1NC(=O)NCC(C)O (stereo not shown) [Example 183, 1-[5-[4-(4-cyanophenyl)piperidine-1-carbonyl]-2-methyl-phenyl]-3-(2-hydroxypropyl)urea]	89.6%	–
Cc1ccc(C(=O)N2CCC(c3ccc(C#N)cc3)CC2)cc1NC(=O)NCCNC(=O)C(=O)O [Example 104, 2-[[5-[4-(4-cyanophenyl)piperidine-1-carbonyl]-2-methyl-phenyl]carbamoylamino]ethylcarbamoylformic acid]	74.5%	–
Cc1ccc(C(=O)N2CCC(c3ccc(C#N)cc3)CC2)cc1NC(=O)NCc1ccccc1 [Example 32, 3-benzyl-1-[5-[4-(4-cyanophenyl)piperidine-1-carbonyl]-2-methyl-phenyl]urea]	95.5%	–
CC(=O)N[C@@H]1CCCC[C@H]1NC(=O)Nc1cc(C(=O)N2CCC(c3ccc(C#N)cc3)CC2)ccc1C (relative stereo) [N-[(trans)-2-[[5-[4-(4-cyanophenyl)piperidine-1-carbonyl]-2-methylphenyl]carbamoylamino]cyclohexyl]acetamide]	–	do not have IC50s in the range of about 0.001 μM to about 30 μM
Cc1ccc(C(=O)N2CCC(c3ccc(C#N)cc3)CC2)cc1NC(=O)NCCCNS(=O)(=O)C(C)C [Example 217, 1-[5-[4-(4-cyanophenyl)piperidine-1-carbonyl]-2-methyl-phenyl]-3-[3-(propan-2-ylsulfonylamino)propyl]urea]	87%	–
Cc1cc(CNC(=O)Nc2cc(C(=O)N3CCC(c4ccc(C#N)cc4)CC3)ccc2C)no1 [Example 246, 1-[5-[4-(4-cyanophenyl)piperidine-1-carbonyl]-2-methyl-phenyl]-3-[(5-methyl-1,2-oxazol-3-yl)methyl]urea]	105%	–
COc1cccc(C2CCN(C(=O)c3ccc(C)c(NC(=O)NC(C)C)c3)CC2)c1 [1-[5-[4-(3-methoxyphenyl)piperidine-1-carbonyl]-2-methylphenyl]-3-propan-2-ylurea]	–	do not have IC50s in the range of about 0.001 μM to about 30 μM
COC(=O)C(CCn1cnnn1)NC(=O)Nc1cc(C(=O)N2CCC(c3ccc(C#N)cc3)CC2)ccc1C (stereo not shown) [Methyl 2-[[5-[4-(4-cyanophenyl)piperidine-1-carbonyl]-2-methylphenyl]carbamoylamino]-4-(tetrazol-1-yl)butanoate]	–	do not have IC50s in the range of about 0.001 μM to about 30 μM
Cc1ccc(C(=O)N2CCC(c3ccc(C#N)cc3)CC2)cc1NC(=O)NCCNC(=O)CO [Example 114, N-[2-[[5-[4-(4-cyanophenyl)piperidine-1-carbonyl]-2-methyl-phenyl]carbamoylamino]ethyl]-2-hydroxy-acetamide]	89.4%	–

More lines, main results first:

inhibition at 100 µM	Compound	IC50, inhibition of human Fatty Acid Synthase
90.1%	Cc1ccc(C(=O)N2CCC(c3ccc(C(F)(F)F)cc3)CC2)cc1NC(=O)NC1CCCNC1 (stereo not shown) [Example 337, 1-[2-methyl-5-[4-[4-(trifluoromethyl)phenyl]piperidine-1-carbonyl]phenyl]-3-(3-piperidyl)urea]	–
93.4%	Cc1ccc(C(=O)N2CCC(c3ccc(C#N)cc3)CC2)cc1NC(=O)NCCN(C)C(=O)C(C)C [Example 271, N-[2-[[5-[4-(4-cyanophenyl)piperidine-1-carbonyl]-2-methyl-phenyl]carbamoylamino]ethyl]-N, 2-dimethyl-propanamide]	–
106%	Cc1ccc(C(=O)N2CCC(c3ccc(C#N)cc3)CC2)cc1NC(=O)NC1CCN(C(=O)N(C)C)CC1 [Example 284, 4-[[5-[4-(4-cyanophenyl)piperidine-1-carbonyl]-2-methyl-phenyl]carbamoylamino]-N,N-dimethyl-piperidine-1-carboxamide]	–
86.9%	Cc1ccc(C(=O)N2CCC(c3ccc(C(F)(F)F)cc3)CC2)cc1NC(=O)NCCNC(=O)OC(C)(C)C [Example 336, tert-butyl N-[2-[[2-methyl-5-[4-[4-(trifluoromethyl)phenyl]piperidine-1-carbonyl]phenyl]carbamoylamino]ethyl]carbamate]	–
93.2%	Cc1ccc(C(=O)N2CCC(c3ccc(C#N)cc3)CC2)cc1NC(=O)NCc1cccc(N2CCOCC2)n1 [Example 358, 1-[5-[4-(4-cyanophenyl)piperidine-1-carbonyl]-2-methyl-phenyl]-3-[(6-morpholin-4-ylpyridin-2-yl)methyl]urea]	–
99.8%	Cc1ccc(C(=O)N2CCC(c3ccc(C#N)cc3)CC2)cc1NC(=O)NCC1CC1 [Example 288, 1-[5-[4-(4-cyanophenyl)piperidine-1-carbonyl]-2-methyl-phenyl]-3-(cyclopropylmethyl)urea]	–
87.4%	Cc1ccc(C(=O)N2CCC(c3ccc(C#N)cc3)CC2)cc1NC(=O)N1CC(NS(=O)(=O)N(C)C)C1 [Example 314, N-[5-[4-(4-cyanophenyl)piperidine-1-carbonyl]-2-methyl-phenyl]-3-(dimethylsulfamoylamino)azetidine-1-carboxamide]	–
82.4%	CCOC(=O)N1CCN(C(=O)Nc2cc(C(=O)N3CCC(c4ccc(C#N)cc4)CC3)ccc2C)CC1 [Example 330, Ethyl 4-[[5-[4-(4-cyanophenyl)piperidine-1-carbonyl]-2-methyl-phenyl]carbamoyl]piperazine-1-carboxylate]	–
91.5%	CC(=O)N[C@@H]1CCCC[C@@H]1NC(=O)Nc1cc(C(=O)N2CCC(c3ccc(C#N)cc3)CC2)ccc1C (relative stereo) [Example 308, N-[(cis)-2-[[5-[4-(4-cyanophenyl)piperidine-1-carbonyl]-2-methyl-phenyl]carbamoylamino]cyclohexyl]acetamide]	–
81.3%	Cc1ccc(C(=O)N2CCC(c3ccc(F)cc3)CC2)cc1NC(=O)NC1CN(C(=O)OC(C)(C)C)C1 [Example 339, tert-butyl 3-[[5-[4-(4-fluorophenyl)piperidine-1-carbonyl]-2-methyl-phenyl]carbamoylamino]azetidine-1-carboxylate]	–
